Source: patent publication US10028960B2, “Pyrimidine compounds as JAK kinase inhibitors” (THERAVANCE BIOPHARMA R&D IP, LLC, priority 2016, dated 2018)
Read-outs that look alike come from different tables or passages of the source.

Key:
JAK2 = JAK2 (Homo sapiens (Human), UniProt O60674); assay: LanthaScreen JAK biochemical assay, JAK2; conditions: for Ki: read-out: JAK 2 (pKi) (converted)
Experimental: (§1) A panel of four LanthaScreen JAK biochemical assays (JAK1, 2, 3 and Tyk2) were carried in a common kinase reaction buffer (50 mM HEPES, pH 7.5, 0.01% Brij-35, 10 mM MgCl2, and 1 mM EGTA). Recombinant GST-tagged JAK enzymes and a GFP-tagged STAT1 peptide substrate were obtained from Life Technologies.

[1] = system: IL-13 induced STAT6 phosphorylation in HT-29 human colorectal adenocarcinoma cells; assay: Cellular JAK potency assay: inhibition of IL-13 induced STAT6 phosphorylation; type: cell-based; conditions: IL-13 induced STAT6 phosphorylation, HT-29 cells; for IC50: Homo sapiens, read-out: HT-29 (pIC50) (converted)
Experimental: The potency of test compounds for inhibition of the JAK-dependent cytokine interleuken-13 (IL-13) was assessed by measuring IL-13 (IL-13, R&D Systems) induced STAT6 phosphorylation in HT-29 human colorectal adenocarcinoma cells (ATCC).
The anti-STAT6 antibody (Cell Signaling Technologies) was conjugated to AlphaScreen acceptor beads (Perkin Elmer), while the anti-pSTAT6 (pTyr641) antibody (Cell Signaling Technologies) was biotinylated using EZ-Link Sulfo-NHS-Biotin (Thermo Scientific).
HT-29 cells were grown at 37° C. in a 5% CO2 humidified incubator in McCoy's 5a Modified medium (ATCC) supplemented with 10% FBS (Hyclone), 100 U/mL penicillin, 100 μg/mL streptomycin (Life Technologies), and 2 mM GlutaMAX (Life Technologies). On day 1 of the assay, cells were seeded at a 7,500 cells/well density in white poly-D-lysine-coated 384-well plates (Corning) with 25 μL medium, and were allowed to adhere overnight in the incubator. On day 2 of the assay, the medium was removed and replaced with 12 μL of assay buffer (Hank's Balanced Salt Solution/HBSS, 25 mM HEPES, and 1 mg/ml bovine serum albumin/BSA) containing dose-responses of test compounds. Compounds were serially diluted in DMSO and then diluted another 1000-fold in media to bring the final DMSO concentration to 0.1%. Cells were incubated with test compounds at 37° C. for 1 h, and followed by the addition of 12 μL of pre-warmed IL-13 (12 ng/ml in assay buffer) for stimulation. After incubating at 37° C. for 30 min, the assay buffer (containing compound and IL-13) was removed, and 10 μL of cell lysis buffer (25 mM HEPES, 0.1% SDS, 1% NP-40, 5 mM MgCl2, 1.3 mM EDTA, 1 mM EGTA, and supplement with Complete Ultra mini protease inhibitors and PhosSTOP from Roche Diagnostics). The plates were shaken at ambient temperature for 30 min before the addition of detection reagents. A mixture of biotin-anti-pSTAT6 and anti-STAT6 conjugated acceptor beads was added first and incubated at ambient temperature for 2 h, followed by the addition of streptavidin conjugated donor beads (Perkin Elmer). After a minimum of 2 h incubation, the assay plates were read on the EnVision plate reader.
Results were expressed as the negative logarithm of the IC50 value, pIC50.

JAK1 = JAK1 (Homo sapiens (Human), UniProt P23458); assay: LanthaScreen JAK biochemical assay, JAK1
Experimental: as §1

JAK3 = JAK3 (Homo sapiens (Human), UniProt P52333); assay: LanthaScreen JAK biochemical assay, JAK3; conditions: for Ki: read-out: JAK 3 (pKi) (converted)
Experimental: as §1

Tyk2 = Tyk2 (Homo sapiens (Human), UniProt P29597); assay: LanthaScreen JAK biochemical assay, Tyk2; conditions: for Ki: read-out: Tyk 2 (pKi) (converted)
Experimental: as §1

[2] = Determination of absorption in cannulated rats; type: in vivo, Sprague Dawley rats; conditions: rat, oral, portal vein
Experimental: Oral bioavailability (F %), fraction absorbed (Fa %) and fraction escaping hepatic clearance (Fh %) were determined in Sprague Dawley rats from the following two studies:
(1) Pharmacokinetics in rats following an IV dose of test compound: Following IV dosing, plasma samples were typically collected from 0-6 hr. Drug levels were determined using an LC-MS-MS method. The resulting drug levels were used to compute the IV pharmacokinetic parameters: AUC IV and Dose IV.
(2) Rats that have been cannulated in their portal vein (PV) and also in their jugular vein (JV) were dosed orally with test compound. Following oral dosing, plasma samples were typically collected from 0-6 hr from both the portal vein and the jugular vein. Drug levels were determined using an LC-MS-MS method. The resulting drug levels were used to compute the following pharmacokinetic parameters: AUC PO PV, AUC PO JV, and Dose PO.
Using data derived from the above studies, the oral bioavailability F %, and the quantities Fa % and Fh % were calculated from the following formulas: F %=(AUC PO JV/AUC IV)*(Dose IV/Dose PO)*100 Fa %=(AUC PO PV/AUC IV)*(Dose IV/Dose PO)*100 Fh %=AUC PO JV/AUC PO PV
AUC PO JV=Area under the curve following oral dose and plasma collected from the jugular vein
AUC PO PV=Area under the curve following oral dose and plasma collected from the portal vein
AUC IV=Area under the curve following an intravenous dose
Dose IV=Intravenous Dose in mg/kg
Dose PO=Oral Dose in mg/kg

[3] = read-out: JAK 1 (pKi) (converted)

Sequence of Tyk2 (P29597 whole entry): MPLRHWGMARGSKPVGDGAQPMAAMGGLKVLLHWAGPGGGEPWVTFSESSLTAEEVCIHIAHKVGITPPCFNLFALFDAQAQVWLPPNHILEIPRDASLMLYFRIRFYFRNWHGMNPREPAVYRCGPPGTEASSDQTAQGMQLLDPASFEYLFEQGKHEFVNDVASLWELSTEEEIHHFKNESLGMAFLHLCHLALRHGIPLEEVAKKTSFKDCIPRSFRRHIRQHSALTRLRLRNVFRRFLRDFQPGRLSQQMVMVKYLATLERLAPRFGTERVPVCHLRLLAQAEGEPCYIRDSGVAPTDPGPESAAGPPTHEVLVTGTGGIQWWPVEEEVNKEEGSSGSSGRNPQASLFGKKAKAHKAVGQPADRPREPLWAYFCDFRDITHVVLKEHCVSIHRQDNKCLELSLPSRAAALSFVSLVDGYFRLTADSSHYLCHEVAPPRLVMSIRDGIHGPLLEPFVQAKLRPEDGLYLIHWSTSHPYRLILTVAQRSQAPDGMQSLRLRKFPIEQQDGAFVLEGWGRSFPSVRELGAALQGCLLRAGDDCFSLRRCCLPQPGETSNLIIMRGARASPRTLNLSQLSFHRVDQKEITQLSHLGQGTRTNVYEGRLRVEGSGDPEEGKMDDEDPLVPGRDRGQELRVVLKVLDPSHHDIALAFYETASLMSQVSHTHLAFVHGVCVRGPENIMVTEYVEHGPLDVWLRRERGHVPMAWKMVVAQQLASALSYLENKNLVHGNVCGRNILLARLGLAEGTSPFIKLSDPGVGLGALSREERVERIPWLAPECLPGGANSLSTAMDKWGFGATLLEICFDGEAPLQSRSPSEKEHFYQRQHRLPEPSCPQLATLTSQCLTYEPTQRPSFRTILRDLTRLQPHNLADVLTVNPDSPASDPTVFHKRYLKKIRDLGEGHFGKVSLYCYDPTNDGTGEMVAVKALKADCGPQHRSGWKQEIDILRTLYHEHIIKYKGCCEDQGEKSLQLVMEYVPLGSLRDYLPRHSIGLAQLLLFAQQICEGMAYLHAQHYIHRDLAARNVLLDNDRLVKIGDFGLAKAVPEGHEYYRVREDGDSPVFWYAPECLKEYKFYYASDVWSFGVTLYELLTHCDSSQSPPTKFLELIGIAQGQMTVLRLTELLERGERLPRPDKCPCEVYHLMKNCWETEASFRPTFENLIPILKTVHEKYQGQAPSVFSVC
Sequence of JAK1 (P23458 whole entry): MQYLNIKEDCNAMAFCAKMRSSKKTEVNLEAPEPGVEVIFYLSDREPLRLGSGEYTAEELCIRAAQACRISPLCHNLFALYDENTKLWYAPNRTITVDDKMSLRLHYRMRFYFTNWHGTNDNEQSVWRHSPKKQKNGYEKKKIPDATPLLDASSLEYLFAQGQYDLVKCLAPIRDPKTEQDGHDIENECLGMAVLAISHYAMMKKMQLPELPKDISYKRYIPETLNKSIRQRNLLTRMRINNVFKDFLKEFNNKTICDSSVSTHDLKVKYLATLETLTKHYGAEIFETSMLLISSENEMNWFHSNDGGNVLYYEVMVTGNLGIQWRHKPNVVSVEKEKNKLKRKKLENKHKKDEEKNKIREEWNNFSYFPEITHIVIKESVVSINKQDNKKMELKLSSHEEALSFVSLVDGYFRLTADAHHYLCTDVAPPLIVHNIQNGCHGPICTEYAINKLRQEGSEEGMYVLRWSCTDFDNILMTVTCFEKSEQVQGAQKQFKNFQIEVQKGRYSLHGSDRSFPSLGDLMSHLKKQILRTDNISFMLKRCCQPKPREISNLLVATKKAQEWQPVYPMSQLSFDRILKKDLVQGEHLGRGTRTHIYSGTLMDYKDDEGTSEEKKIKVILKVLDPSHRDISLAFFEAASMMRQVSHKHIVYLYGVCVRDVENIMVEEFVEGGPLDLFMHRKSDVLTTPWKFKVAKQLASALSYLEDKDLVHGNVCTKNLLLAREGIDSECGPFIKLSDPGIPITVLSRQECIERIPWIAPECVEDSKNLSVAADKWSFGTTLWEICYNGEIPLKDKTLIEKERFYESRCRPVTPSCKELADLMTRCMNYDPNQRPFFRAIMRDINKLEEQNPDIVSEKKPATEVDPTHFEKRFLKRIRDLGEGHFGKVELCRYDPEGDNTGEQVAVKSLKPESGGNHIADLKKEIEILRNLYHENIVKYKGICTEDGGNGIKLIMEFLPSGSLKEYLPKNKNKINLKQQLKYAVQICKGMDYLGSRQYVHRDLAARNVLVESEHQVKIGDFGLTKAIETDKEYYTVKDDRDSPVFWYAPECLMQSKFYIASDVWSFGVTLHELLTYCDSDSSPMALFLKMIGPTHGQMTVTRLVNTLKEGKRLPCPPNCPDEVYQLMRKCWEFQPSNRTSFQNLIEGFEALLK
Sequence of JAK3 (P52333 whole entry): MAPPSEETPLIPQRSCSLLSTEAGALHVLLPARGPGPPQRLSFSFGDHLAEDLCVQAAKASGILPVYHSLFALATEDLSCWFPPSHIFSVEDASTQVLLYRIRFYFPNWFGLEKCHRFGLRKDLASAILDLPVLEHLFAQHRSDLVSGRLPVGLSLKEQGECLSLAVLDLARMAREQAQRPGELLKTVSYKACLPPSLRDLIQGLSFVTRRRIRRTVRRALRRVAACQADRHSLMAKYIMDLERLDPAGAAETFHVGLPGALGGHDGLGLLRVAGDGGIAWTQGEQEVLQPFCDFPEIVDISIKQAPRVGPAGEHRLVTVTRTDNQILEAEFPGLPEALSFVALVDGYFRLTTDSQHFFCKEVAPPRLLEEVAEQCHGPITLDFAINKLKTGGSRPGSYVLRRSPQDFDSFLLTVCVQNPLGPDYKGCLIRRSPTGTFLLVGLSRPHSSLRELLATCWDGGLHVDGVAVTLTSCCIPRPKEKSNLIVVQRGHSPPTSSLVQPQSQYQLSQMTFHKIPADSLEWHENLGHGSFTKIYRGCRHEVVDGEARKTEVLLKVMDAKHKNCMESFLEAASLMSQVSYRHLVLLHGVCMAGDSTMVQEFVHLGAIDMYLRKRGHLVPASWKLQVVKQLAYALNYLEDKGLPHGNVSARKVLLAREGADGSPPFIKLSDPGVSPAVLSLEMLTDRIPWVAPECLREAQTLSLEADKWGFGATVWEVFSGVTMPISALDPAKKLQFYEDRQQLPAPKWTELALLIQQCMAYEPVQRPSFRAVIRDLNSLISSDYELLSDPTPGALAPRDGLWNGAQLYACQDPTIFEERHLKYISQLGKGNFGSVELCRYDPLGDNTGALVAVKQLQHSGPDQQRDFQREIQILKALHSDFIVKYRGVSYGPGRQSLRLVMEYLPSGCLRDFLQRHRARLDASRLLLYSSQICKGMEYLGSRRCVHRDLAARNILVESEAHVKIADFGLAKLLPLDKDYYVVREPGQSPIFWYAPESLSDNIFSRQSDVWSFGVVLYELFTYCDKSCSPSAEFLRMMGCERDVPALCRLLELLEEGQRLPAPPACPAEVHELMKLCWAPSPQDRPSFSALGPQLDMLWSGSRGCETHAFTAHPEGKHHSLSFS
Sequence of JAK2 (O60674 whole entry): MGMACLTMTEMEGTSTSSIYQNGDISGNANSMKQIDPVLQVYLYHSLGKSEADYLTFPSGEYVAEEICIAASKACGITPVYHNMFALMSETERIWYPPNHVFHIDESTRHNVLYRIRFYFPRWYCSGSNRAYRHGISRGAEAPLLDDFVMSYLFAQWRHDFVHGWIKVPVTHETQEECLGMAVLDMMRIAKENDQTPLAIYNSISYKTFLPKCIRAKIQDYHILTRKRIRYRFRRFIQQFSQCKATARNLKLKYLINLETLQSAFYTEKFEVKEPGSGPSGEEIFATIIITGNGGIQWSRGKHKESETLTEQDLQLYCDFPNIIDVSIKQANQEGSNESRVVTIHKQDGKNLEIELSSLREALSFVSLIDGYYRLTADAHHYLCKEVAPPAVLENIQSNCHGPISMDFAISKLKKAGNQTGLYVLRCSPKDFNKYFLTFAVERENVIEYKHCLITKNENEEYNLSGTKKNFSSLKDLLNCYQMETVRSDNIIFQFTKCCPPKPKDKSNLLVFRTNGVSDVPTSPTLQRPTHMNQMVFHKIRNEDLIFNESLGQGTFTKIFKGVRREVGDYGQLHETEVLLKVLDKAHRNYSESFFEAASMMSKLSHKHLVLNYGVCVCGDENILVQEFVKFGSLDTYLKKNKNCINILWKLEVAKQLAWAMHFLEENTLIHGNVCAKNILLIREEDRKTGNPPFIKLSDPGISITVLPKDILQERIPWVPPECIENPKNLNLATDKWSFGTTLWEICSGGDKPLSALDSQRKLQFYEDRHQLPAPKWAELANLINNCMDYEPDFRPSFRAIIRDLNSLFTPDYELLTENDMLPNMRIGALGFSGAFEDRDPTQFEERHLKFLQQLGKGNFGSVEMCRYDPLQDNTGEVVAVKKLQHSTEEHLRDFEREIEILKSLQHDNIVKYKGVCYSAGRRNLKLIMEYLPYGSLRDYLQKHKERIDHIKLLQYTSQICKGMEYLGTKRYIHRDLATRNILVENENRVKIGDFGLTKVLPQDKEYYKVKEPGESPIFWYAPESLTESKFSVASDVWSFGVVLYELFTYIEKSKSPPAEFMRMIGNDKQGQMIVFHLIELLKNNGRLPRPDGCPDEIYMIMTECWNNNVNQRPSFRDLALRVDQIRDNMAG

| SMILES | JAK 2 (pKi) (JAK2) | HT-29 (pIC50) [1] | JAK 1 (pKi) (JAK1) | JAK 3 (pKi) (JAK3) | Tyk 2 (pKi) (Tyk2) | Ki (JAK2) | IC50 [1] | Ki (JAK1) | Ki (JAK3) | Ki (Tyk2) | Ki (JAK1; [3]) | absorption at the portal vein (Fa %) [2] |
| --- | --- | --- | --- | --- | --- | --- | --- | --- | --- | --- | --- | --- |
| COc1cc(Nc2cc(CO)[nH]n2)nc(N(C)[C@@H]2C[C@H]3CCC[C@@H](C2)N3S(=O)(=O)N2CCCC2)n1 [Example 1-13, (3-((6-methoxy-2-(methyl((1R,3s,5S)-9-(pyrrolidin-1-ylsulfonyl)-9-azabicyclo[3.3.1]nonan-3-yl)amino)pyrimidin-4-yl)amino)-1H-pyrazol-5-yl)methanol] | A (A represents a pKi value≥10 (Ki≤0.1 nM)) | A (A represents a pIC50 value≥7.5 (IC50≤32 nM)) | A (A represents a pKi value≥10 (Ki≤0.1 nM)) | B (B represents a pKi value between 9 and 10 (Ki between 1 nM and 0.1 nM)) | B (B represents a pKi value between 9 and 10 (Ki between 1 nM and 0.1 nM)) | – | – | – | – | – | – | – |
| COc1cc(Nc2cc(CO)[nH]n2)nc(N(C)[C@@H]2C[C@H]3CCC[C@@H](C2)N3S(=O)(=O)C2CC2)n1 [Example 1-14, (3-((2-(((1R,3s,5S)-9-(cyclopropylsulfonyl)-9-azabicyclo[3.3.1]nonan-3-yl)(methyl)amino)-6-methoxypyrimidin-4-yl)amino)-1H-pyrazol-5-yl)methanol] | A (A represents a pKi value≥10 (Ki≤0.1 nM)) | A (A represents a pIC50 value≥7.5 (IC50≤32 nM)) | B (B represents a pKi value between 9 and 10 (Ki between 1 nM and 0.1 nM)) | C (C represents a pKi value between 8 and 9 (Ki between 10 nM and 1 nM)) | B (B represents a pKi value between 9 and 10 (Ki between 1 nM and 0.1 nM)) | – | – | – | – | – | – | – |
| COc1cc(Nc2cc(CO)[nH]n2)nc(N(C)[C@@H]2C[C@H]3CCC[C@@H](C2)N3S(=O)(=O)CCC#N)n1 [Example 1-12, 3-(((1R,3s,5S)-3-((4-((5-(hydroxymethyl)-1H-pyrazol-3-yl)amino)-6-methoxypyrimidin-2-yl)(methyl)amino)-9-azabicyclo[3.3.1]nonan-9-yl)-sulfonyl)propanenitrile] | B (B represents a pKi value between 9 and 10 (Ki between 1 nM and 0.1 nM)) | – | B (B represents a pKi value between 9 and 10 (Ki between 1 nM and 0.1 nM)) | C (C represents a pKi value between 8 and 9 (Ki between 10 nM and 1 nM)) | B (B represents a pKi value between 9 and 10 (Ki between 1 nM and 0.1 nM)) | – | – | – | – | – | – | – |
| COc1cc(Nc2cc(CO)[nH]n2)nc(N(C)[C@@H]2C[C@H]3CCC[C@@H](C2)N3S(=O)(=O)c2cccnc2)n1 [Example 1-15, (3-((6-methoxy-2-(methyl((1R,3s,5S)-9-(pyridin-3-ylsulfonyl)-9-azabicyclo[3.3.1]nonan-3-yl)amino)pyrimidin-4-yl)amino)-1H-pyrazol-5-yl)methanol] | A (A represents a pKi value≥10 (Ki≤0.1 nM)) | B (B represents a pIC50 value between 6.7 and 7.5 (IC50 between 200 nM and 32 nM)) | B (B represents a pKi value between 9 and 10 (Ki between 1 nM and 0.1 nM)) | C (C represents a pKi value between 8 and 9 (Ki between 10 nM and 1 nM)) | B (B represents a pKi value between 9 and 10 (Ki between 1 nM and 0.1 nM)) | – | – | – | – | – | – | – |
| COc1cc(Nc2cc(CO)[nH]n2)nc(N(C)[C@@H]2C[C@H]3CC[C@@H](C2)N3CCC#N)n1 [Example 5, 3-((1R,3s,5S)-3-((4-((5-(hydroxymethyl)-1H-pyrazol-3-yl)amino)-6-methoxypyrimidin-2-yl)(methyl)amino)-8-azabicyclo[3.2.1]octan-8-yl)-propanenitrile] | – | – | – | – | – | 0.1 to 1 nM | 200 to 1000 nM | 0.1 to 1 nM | 10 to 31.6 nM | 1 to 10 nM | – | – |
| COc1cc(Nc2cc(CO)[nH]n2)nc(N(C)[C@@H]2C[C@H]3CCC[C@@H](C2)N3S(=O)(=O)N2CCC2)n1 [Example 1-17, (3-((2-(((1R,3s,5S)-9-(azetidin-1-ylsulfonyl)-9-azabicyclo[3.3.1]nonan-3-yl)(methyl)amino)-6-methoxypyrimidin-4-yl)amino)-1H-pyrazol-5-yl)methanol] | A (A represents a pKi value≥10 (Ki≤0.1 nM)) | A (A represents a pIC50 value≥7.5 (IC50≤32 nM)) | B (B represents a pKi value between 9 and 10 (Ki between 1 nM and 0.1 nM)) | C (C represents a pKi value between 8 and 9 (Ki between 10 nM and 1 nM)) | B (B represents a pKi value between 9 and 10 (Ki between 1 nM and 0.1 nM)) | – | – | – | – | – | – | – |
| COc1cc(Nc2cc(CO)[nH]n2)nc(N(C)[C@@H]2C[C@H]3CCC[C@@H](C2)N3S(=O)(=O)c2ccccc2)n1 [Example 1-16, (3-((6-methoxy-2-(methyl((1R,3s,5S)-9-(phenylsulfonyl)-9-azabicyclo[3.3.1]nonan-3-yl)amino)pyrimidin-4-yl)amino)-1H-pyrazol-5-yl)methanol] | B (B represents a pKi value between 9 and 10 (Ki between 1 nM and 0.1 nM)) | B (B represents a pIC50 value between 6.7 and 7.5 (IC50 between 200 nM and 32 nM)) | B (B represents a pKi value between 9 and 10 (Ki between 1 nM and 0.1 nM)) | C (C represents a pKi value between 8 and 9 (Ki between 10 nM and 1 nM)) | B (B represents a pKi value between 9 and 10 (Ki between 1 nM and 0.1 nM)) | – | – | – | – | – | – | – |
| COc1cc(Nc2cc(CO)[nH]n2)nc(N(C)[C@@H]2C[C@H]3CCC[C@@H](C2)N3S(C)(=O)=O)n1 [Example 3, (3-((6-methoxy-2-(methyl((1R,3s,5S)-9-(methylsulfonyl)-9-azabicyclo[3.3.1]nonan-3-yl)amino)pyrimidin-4-yl)amino)-1H-pyrazol-5-yl)methanol] | A (A represents a pKi value≥10 (Ki≤0.1 nM)) | – | – | – | – | – | 31.6 to 200 nM | – | 1 to 10 nM | 0.1 to 1 nM | 0.1 to 1 nM | greater than 40% |
| COc1cc(Nc2cc(CO)[nH]n2)nc(N(C)[C@@H]2C[C@H]3CCC[C@@H](C2)N3C(=O)OCC(C)C)n1 [Example 8, Isobutyl (1R,3s,5S)-3-((4-((5-(hydroxymethyl)-1H-pyrazol-3-yl)amino)-6-methoxypyrimidin-2-yl)(methyl)amino)-9-azabicyclo[3.3.1]nonane-9-carboxylate] | – | – | – | – | – | 0.1 to 1 nM | 31.6 to 200 nM | – | 1 to 10 nM | 0.1 to 1 nM | 0.1 to 1 nM | – |
| COc1cc(Nc2cc(CO)[nH]n2)nc(N(C)[C@@H]2C[C@H]3CCC[C@@H](C2)N3Cc2cncc(C#N)c2)n1 [Example 7, 5-(((1R,3s,5S)-3-((4-((5-(hydroxymethyl)-1H-pyrazol-3-yl)amino)-6-methoxypyrimidin-2-yl)(methyl)amino)-9-azabicyclo[3.3.1]nonan-9-yl)methyl)nicotinonitrile] | A (A represents a pKi value≥10 (Ki≤0.1 nM)) | – | A (A represents a pKi value≥10 (Ki≤0.1 nM)) | – | – | – | 31.6 to 200 nM | – | 0.1 to 1 nM | 0.1 to 1 nM | – | – |
